From PMC3299084 (Journal of Medicinal Chemistry, 2012)
Peptide text beside a SMILES is read from it. * marks the point of attachment. X1 = CC(=O)O[C@H]1C(=O)[C@@]2(C)[C@H]([C@H](OC(=O)c3ccccc3)[C@]3(O)C[C@H](OC(=O)[C@H](OC(=O)COCC(=O)OCCCCCCn4cc(CCCC(=O)*)nn4)[C@@H](NC(=O)c4ccccc4)c4ccccc4)C(C)=C1C3(C)C)[C@]1(OC(C)=O)CO[C@@H]1C[C@@H]2O

How the values were obtained:
EphA2 [1] = target: T1, EphA2 (Homo sapiens, UniProt P29317); test: Quantum dot internalization into lysosomes; conditions: PC3 prostate cancer cells (highly EphA2 expressing), 100 μM
T1 sequence (P29317 24-976): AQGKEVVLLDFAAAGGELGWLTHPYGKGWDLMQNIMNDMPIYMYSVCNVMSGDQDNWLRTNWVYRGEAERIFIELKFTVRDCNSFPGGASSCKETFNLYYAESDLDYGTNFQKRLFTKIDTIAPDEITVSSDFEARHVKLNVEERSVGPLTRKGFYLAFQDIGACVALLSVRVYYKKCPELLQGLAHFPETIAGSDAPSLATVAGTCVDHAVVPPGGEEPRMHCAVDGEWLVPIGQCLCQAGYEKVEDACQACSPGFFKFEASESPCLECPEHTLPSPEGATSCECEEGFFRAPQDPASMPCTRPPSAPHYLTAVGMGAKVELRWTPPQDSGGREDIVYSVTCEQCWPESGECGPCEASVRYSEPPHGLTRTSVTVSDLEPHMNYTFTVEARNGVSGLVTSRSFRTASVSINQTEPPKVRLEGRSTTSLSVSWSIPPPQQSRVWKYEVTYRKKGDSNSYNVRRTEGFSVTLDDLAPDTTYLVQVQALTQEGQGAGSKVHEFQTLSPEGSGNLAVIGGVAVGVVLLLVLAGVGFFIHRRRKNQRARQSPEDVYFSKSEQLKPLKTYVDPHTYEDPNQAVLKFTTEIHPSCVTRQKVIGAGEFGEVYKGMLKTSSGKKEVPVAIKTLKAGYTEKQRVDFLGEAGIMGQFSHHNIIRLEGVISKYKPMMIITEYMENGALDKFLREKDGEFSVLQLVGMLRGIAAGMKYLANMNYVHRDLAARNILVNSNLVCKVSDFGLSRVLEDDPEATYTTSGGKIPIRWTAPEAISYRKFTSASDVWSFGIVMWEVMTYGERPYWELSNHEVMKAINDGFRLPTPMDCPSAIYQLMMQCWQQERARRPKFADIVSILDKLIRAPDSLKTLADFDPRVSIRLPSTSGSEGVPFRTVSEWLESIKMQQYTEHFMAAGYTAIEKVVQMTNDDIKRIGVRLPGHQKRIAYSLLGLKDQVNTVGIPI

EphA2 Fc = EphA2 Fc (Homo sapiens, UniProt P29317); test: ELISA displacement of ephrin-A5 AP from immobilized EphA2 Fc; conditions: ephrin-A5 AP binding to EphA2 Fc
EphA2 Fc, sequence (P29317 24-537 limits assumed): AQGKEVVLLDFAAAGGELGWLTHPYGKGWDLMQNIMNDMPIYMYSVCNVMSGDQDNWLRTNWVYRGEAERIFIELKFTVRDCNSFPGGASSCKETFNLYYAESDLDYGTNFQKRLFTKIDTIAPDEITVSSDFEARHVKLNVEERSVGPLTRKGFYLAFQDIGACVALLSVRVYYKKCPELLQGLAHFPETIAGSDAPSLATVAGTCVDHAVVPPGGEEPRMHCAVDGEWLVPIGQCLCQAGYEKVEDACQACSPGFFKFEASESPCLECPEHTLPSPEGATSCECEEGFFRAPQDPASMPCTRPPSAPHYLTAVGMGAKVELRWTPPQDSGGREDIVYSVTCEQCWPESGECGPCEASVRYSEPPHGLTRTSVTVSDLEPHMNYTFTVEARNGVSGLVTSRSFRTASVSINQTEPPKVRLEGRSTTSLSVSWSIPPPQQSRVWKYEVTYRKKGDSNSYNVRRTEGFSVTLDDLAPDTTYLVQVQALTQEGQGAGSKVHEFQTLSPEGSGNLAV

EphA2 [2] = target: T1, EphA2; test: EphA2 internalization into lysosomes, confocal imaging; format: cell-based; conditions: PC3 cells, 2 h, 100 μM conjugate or 0.2 μg/mL ephrin-A1 Fc
PC3 cells [3] = test: ATP-Lite analysis of cell viability; format: cell-based, human; conditions: 72 hours, 10 nM, EphA2 overexpressing PC3
[4] = Bio-distribution: PTX levels in tumor and plasma by LC-MS/MS; format: in vivo, mice
PC3 tumor xenografts = conditions: intravenous, twice weekly for 3 weeks
Microsomal stability = format: in vitro ADME; conditions: rat, liver microsomes, pH 7.2
Plasma stability = format: in vitro ADME; conditions: rat, plasma (fresh)
PC3 cells [5] = test: Release of native paclitaxel in the presence of PC3 cells; format: cell-based, human; conditions: in the presence of PC3 cells (data not shown)

concentration at 30 min ([4]; SCID-beige, mouse, plasma, intravenous, 25 mg/kg) [ng/mL] | SMILES | Qdot uptake / targeting of cells (EphA2 [1]) | displacement of ephrin-A5 (EphA2 Fc) | EphA2 internalization into lysosomes (EphA2 [2]) | cell death / viability of PC3 cells (PC3 cells [3]) | signs of toxicity (PC3 tumor xenografts) | mouse body weights (PC3 tumor xenografts; versus vehicle control) | Plasma levels of PTX ([4]; 30 min after single equimolar intravenous dose (PTX 25 mg/kg)) [ng/mL] | half-life at 4 μM (Microsomal stability) [min] | half-life at 1 μM (Plasma stability) [min] | time to nearly complete release of native paclitaxel (PC3 cells [5])
 | CSCC[C@H](NC(=O)[C@H](C)NC(=O)[C@H](CCSC)NC(=O)[C@H](CO)NC(=O)[C@@H]1CCCN1C(=O)[C@H](Cc1ccc(O)cc1)NC(=O)[C@@H](N)CC(=O)O)C(=O)N[C@@H](Cc1ccc(O)cc1)C(=O)N[C@@H](CO)C(=O)N1CCC[C@H]1C(=O)N[C@@H](CO)C(=O)N[C@H](C(=O)N[C@@H](CCCCNC(=O)CCCc1cn(CCCCCCOC(=O)COCC(=O)O[C@@H](C(=O)O[C@H]2C[C@@]3(O)[C@@H](OC(=O)c4ccccc4)[C@@H]4[C@]5(OC(C)=O)CO[C@@H]5C[C@H](O)[C@@]4(C)C(=O)[C@H](OC(C)=O)C(=C2C)C3(C)C)[C@@H](NC(=O)c2ccccc2)c2ccccc2)nn1)C(=O)O)C(C)C [DYP-PTX, DYPSMAMYSPSV- K*-PTX] (H-DYPSMAMYSPSVK(X1)-OH; N-terminus and C-terminus assumed) | does not target PC3 cells | neither of the control compounds, DYP motif nor DYP-PTX conjugate, show any detectable displacement of ephrin-A5 | does not trigger EphA2 internalization | no significant cell killing |  |  |  |  |  | 
771 ± 585 | CC(=O)O[C@H]1C(=O)[C@@]2(C)[C@H]([C@H](OC(=O)c3ccccc3)[C@]3(O)C[C@H](OC(=O)[C@H](O)[C@@H](NC(=O)c4ccccc4)c4ccccc4)C(C)=C1C3(C)C)[C@]1(OC(C)=O)CO[C@@H]1C[C@@H]2O [PTX, paclitaxel, reference compound] |  |  |  |  |  |  |  |  |  | 
 | CSCC[C@H](NC(=O)[C@H](CCSC)NC(=O)[C@@H]1CCCN1C(=O)[C@@H](NC(=O)[C@H](CO)NC(=O)[C@H](CC(=O)O)NC(=O)[C@@H]1CCCN1C(=O)[C@H](Cc1ccc(O)cc1)NC(=O)[C@H](C)NC(=O)[C@H](CO)NC(=O)[C@@H](N)Cc1ccc(O)cc1)C(C)C)C(=O)N[C@@H](CO)C(=O)N[C@@H](CCCCNC(=O)CCCc1cn(CCCCCCOC(=O)COCC(=O)O[C@@H](C(=O)O[C@H]2C[C@@]3(O)[C@@H](OC(=O)c4ccccc4)[C@@H]4[C@]5(OC(C)=O)CO[C@@H]5C[C@H](O)[C@@]4(C)C(=O)[C@H](OC(C)=O)C(=C2C)C3(C)C)[C@@H](NC(=O)c2ccccc2)c2ccccc2)nn1)C(=O)O [YSA-PTX] |  |  |  | retained the ability of paclitaxel to induce cell death at low nanomolar concentrations | no adverse signs of toxicity | not affected | 998 ± 742 | 23 | 43 | about 60 minutes
